{
  "source": "PubChem BioAssay AID602398",
  "about": "(The Scripps Research Institute Molecular Screening Center, 2012)",
  "target": "Tyrosine-protein kinase ABL1 (Homo sapiens) + Ras and Rab interactor 1 (Homo sapiens) (UniProt P00519+Q13671)",
  "sequence (P00519 whole entry, looked up)": "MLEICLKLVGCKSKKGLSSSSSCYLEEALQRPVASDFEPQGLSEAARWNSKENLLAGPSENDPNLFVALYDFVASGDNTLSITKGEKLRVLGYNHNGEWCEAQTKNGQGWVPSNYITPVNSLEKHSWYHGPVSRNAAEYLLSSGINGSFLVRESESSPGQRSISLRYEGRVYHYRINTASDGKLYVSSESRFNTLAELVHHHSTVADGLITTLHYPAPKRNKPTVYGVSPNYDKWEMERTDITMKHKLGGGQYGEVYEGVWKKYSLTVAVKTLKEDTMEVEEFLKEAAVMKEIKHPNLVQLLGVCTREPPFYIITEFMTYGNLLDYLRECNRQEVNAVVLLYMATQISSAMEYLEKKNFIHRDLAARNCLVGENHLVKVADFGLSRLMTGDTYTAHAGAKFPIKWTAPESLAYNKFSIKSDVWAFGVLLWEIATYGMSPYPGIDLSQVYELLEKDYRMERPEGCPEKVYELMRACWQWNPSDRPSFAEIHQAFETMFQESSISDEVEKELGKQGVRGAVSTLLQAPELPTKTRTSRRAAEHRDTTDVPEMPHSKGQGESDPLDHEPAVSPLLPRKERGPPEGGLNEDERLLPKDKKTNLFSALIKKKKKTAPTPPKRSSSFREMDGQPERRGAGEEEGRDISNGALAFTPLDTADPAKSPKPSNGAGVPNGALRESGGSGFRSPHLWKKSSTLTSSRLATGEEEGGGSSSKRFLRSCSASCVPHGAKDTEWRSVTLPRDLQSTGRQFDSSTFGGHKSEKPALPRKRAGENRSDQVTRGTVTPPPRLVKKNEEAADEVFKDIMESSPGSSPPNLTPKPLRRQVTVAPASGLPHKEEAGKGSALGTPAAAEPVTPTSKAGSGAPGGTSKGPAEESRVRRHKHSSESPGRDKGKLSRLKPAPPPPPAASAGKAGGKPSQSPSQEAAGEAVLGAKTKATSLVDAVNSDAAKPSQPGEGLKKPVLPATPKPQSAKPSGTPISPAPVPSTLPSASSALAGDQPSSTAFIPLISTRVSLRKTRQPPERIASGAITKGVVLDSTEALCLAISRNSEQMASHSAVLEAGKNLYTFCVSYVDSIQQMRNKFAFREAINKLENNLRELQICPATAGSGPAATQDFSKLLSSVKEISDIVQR",
  "sequence (Q13671 whole entry, looked up)": "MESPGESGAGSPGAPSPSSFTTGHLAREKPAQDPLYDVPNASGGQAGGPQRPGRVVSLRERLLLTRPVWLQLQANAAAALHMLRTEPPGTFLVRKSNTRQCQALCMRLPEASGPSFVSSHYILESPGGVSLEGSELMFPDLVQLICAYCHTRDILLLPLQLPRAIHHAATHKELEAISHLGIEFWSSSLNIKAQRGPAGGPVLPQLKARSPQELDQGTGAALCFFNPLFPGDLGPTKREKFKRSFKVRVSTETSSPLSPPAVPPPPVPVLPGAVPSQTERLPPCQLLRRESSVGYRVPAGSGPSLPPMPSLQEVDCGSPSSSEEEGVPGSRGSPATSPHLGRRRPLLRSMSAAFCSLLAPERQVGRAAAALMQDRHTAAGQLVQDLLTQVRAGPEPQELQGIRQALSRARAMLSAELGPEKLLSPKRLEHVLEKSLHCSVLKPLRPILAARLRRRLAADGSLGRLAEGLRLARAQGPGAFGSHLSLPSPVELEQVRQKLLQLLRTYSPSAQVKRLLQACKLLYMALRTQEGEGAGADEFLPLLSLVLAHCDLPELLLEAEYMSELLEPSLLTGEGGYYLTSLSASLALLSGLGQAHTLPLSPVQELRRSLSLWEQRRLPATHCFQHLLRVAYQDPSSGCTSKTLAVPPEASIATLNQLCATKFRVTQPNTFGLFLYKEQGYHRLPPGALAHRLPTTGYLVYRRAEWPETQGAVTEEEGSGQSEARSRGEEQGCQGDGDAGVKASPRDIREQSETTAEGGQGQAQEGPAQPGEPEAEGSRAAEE",
  "test": "Rin1-Abl binding inhibitor potency, late-stage follow-up, biochemical, TR-FRET, dose response (AID 602398)",
  "note": "Activity calls are given as the source filed them. How the calls were made is not given here.",
  "data": [
    {"smiles": "CN(CCc1ccccc1)C(=O)c1ccc(NC(=O)Cc2ccc(NC(=O)C3CCN(C(=O)c4ccccc4)CC3)cc2)cc1", "values": [
      {"measurement": "IC50", "value": 8.52, "unit": "µM"}
    ]},
    {"smiles": "O=C(Cc1ccc(NC(=O)C2CCN(C(=O)c3ccccc3)CC2)cc1)Nc1ccc(C(=O)N2CCOCC2)cc1", "values": [
      {"measurement": "IC50", "value": "inactive"}
    ]},
    {"smiles": "Cn1c(=O)c2c(nc(-n3ccnc3)n2Cc2ccc(Cl)cc2Cl)n(C)c1=O", "values": [
      {"measurement": "IC50", "value": 4.31, "unit": "µM"}
    ]},
    {"smiles": "COc1cccc(CSc2nnc(CSc3nc4nc(C)cc(C)n4n3)s2)c1", "values": [
      {"measurement": "IC50", "value": 9.57, "unit": "µM"}
    ]},
    {"smiles": "CN(CCc1ccccc1)C(=O)c1ccc(NC(=O)Cc2ccc(NC(=O)C3CCN(C(=O)C4CCCC4)CC3)cc2)cc1", "values": [
      {"measurement": "IC50", "value": 5.22, "unit": "µM"}
    ]},
    {"smiles": "CC(=O)Nc1ccc(NC(=O)C2CCN(C(=O)c3cccs3)CC2)cc1", "values": [
      {"measurement": "IC50", "value": 2.17, "unit": "µM"}
    ]},
    {"smiles": "CN(C(=O)c1ccc(NC(=O)Cc2ccc(NC(=O)C3CCN(C(=O)c4ccccc4)CC3)cc2)cc1)C1CC1", "values": [
      {"measurement": "IC50", "value": 2.53, "unit": "µM"}
    ]},
    {"smiles": "O=c1cc(OCc2ccccc2)cc[nH]1", "values": [
      {"measurement": "IC50", "value": 0.0161, "unit": "µM"}
    ]},
    {"smiles": "CSc1ccccc1OCc1cc(C(=O)N2CCNC(=O)C2)no1", "values": [
      {"measurement": "IC50", "value": 5.94, "unit": "µM"}
    ]},
    {"smiles": "COc1ccc2oc(C(=O)NCC(c3ccco3)N(C)C)c(C)c2c1", "note": "(stereo not drawn)", "values": [
      {"measurement": "IC50", "value": 5.19, "unit": "µM"}
    ]},
    {"smiles": "N#Cc1ccccc1Sc1ccccc1C(=O)NCC(c1ccco1)N1CCCC1", "note": "(stereo not drawn)", "values": [
      {"measurement": "IC50", "value": 4.08, "unit": "µM"}
    ]},
    {"smiles": "CN(Cc1c(F)cccc1Cl)C(=O)CNC(=O)c1ccc2c(c1)OCO2", "values": [
      {"measurement": "IC50", "value": 3.77, "unit": "µM"}
    ]},
    {"smiles": "CCOC(=O)N1CCC(NC(=O)CCc2nc(C3=CCN(C)CC3)no2)CC1", "values": [
      {"measurement": "IC50", "value": 9.41, "unit": "µM"}
    ]},
    {"smiles": "O=C(Cc1ccc(NC(=O)C2CCN(C(=O)C3CCCCC3)CC2)cc1)Nc1ccc(C(=O)N2CCOCC2)cc1", "values": [
      {"measurement": "IC50", "value": "inactive"}
    ]},
    {"smiles": "Cc1c(C(=O)NCC(c2ccco2)N(C)C)oc2c(Cl)cccc12", "note": "(stereo not drawn)", "values": [
      {"measurement": "IC50", "value": 4.68, "unit": "µM"}
    ]},
    {"smiles": "CCOC(=O)N1CCN(C(=O)Nc2ccc(NC(=O)N3CCN(C(=O)OCC)CC3)cc2)CC1", "values": [
      {"measurement": "IC50", "value": "inactive"}
    ]},
    {"smiles": "COc1ccc(CCNc2cc(=O)[nH]c(N)n2)cc1", "values": [
      {"measurement": "IC50", "value": 4.01, "unit": "µM"}
    ]},
    {"smiles": "O=C(Cc1ccc(NC(=O)C2CCN(C(=O)C3CCCC3)CC2)cc1)Nc1ccc(C(=O)N2CCOCC2)cc1", "values": [
      {"measurement": "IC50", "value": 4.37, "unit": "µM"}
    ]}
  ]
}
